For data set [1], the system named is UL-3-C ovarian adenocarcinoma. The data set is described as follows: Tumor cell growth inhibition in vitro. Conditions: Homo sapiens, read-out: IC50. Format: cell-based, human. Here is the method: (§1) The fresh medium containing each drug was replenished every 7-14 days. […] In each case ,the drug-exposed cells were resuspended in fresh media for a minimum of 4 days before the experiments for the cell-growth inhibition was carried out.
(§2) The cells were cultured at an initial density of 2-5×10^4 cells per ml. They were maintained in a 5% CO2-humidified atmosphere at 37° C. in RPMI mediun 1640 (GIBCO/BRL) containing penicillin (100 units/ml), streptomycin (100 μg/ml) (GIBCO/BRL), and 5% heat-inactivated fetal bovine serum. For solid tumor cells growing in a monolayer (such as MCF-7/Adr), cytotoxicitiy of the drug was determined in 96-well microtiter plates by using the sulforhodamine B method as described by Skehan et al (23) for measuring the cellular protein content. For cells that were grown in suspension (such as CCRF-CEM and its sublines), cytotoxicitiy was measured by using the 2,-3-bis(2-methoxy-4-nitro-5-sulfophenyl)-5carboxanilide)-2H terazodium hydroxide (XTT)-microculture tetrazonium method (24) in duplicate in 96-well microtiter plates. For both methods, the absorbance of each well was measured with a microplate reader (EL-340, Bio-Tek, Burlington, Vt.). Each run entailed six or seven concentrations of the tested drugs. Dose-effect relationship data were analyzed with the median-effect plot (25) by using a previously described computer program (26).

The nature of data set [2]: Body-weight decrease and lethality in tumor-bearing nude mice. As to conditions: nude mice. How it is done:
(§3) Depending on the tumor type, treatment started on day 10 to day 21 when subcutaneous tumor size reached 35-200 mm^3, except otherwise indicated. Tumor size and body-weight were recorded every other day (Q2D) and, for humane reasons, the animals were sacrificed when tumor size reached ≧10% of body-weight. Each group, including untreated control, consisted of 3-5 animals unless otherwise indicated.
Essential features of useful cancer therapeutic agent involve not only high efficiency against cancer but also low toxicity toward the host, especially toward vital organs or functions [i.e. wide therapeutic window or high therapeutic index (LD50/ED50)].
(§4) Human tumor cells (5×10^6) or tumor tissue (30-50 mg) were implanted s.c. flank in nu/nu mice (Charles River Laboratories, Wilmington, Mass.). When tumor grew to a specified size, treatment was started by every-other day×5 with 6 hr i.v.-infusion, unless otherwise indicated. Tumor volume was measured with calipers in three dimensions (length×width×height or width). Body-weight changes and lethality were monitored every other day.

The test system of data set [3] is K562 chronic myelocytic leukemia xenograft. In words: Human tumor xenograft in nude mice. Format: in vivo. Conditions: for Therapeutic Effect Rank Order: K562, i.v. infusion (dEpoF vs 15-azaEpoB). Here is the method: FIG. 34 depicts tumor size in nude mice bearing human leukemia […] tumor following 6 mg/kg C-15-Aza-EpoB, Q2D×6 and 30 mg/kg dEpoF, Q2ED×6 (i.v. infusion […].). K562 tumor cells (1×10^7 in 0.2 mL) were inoculated to nude mice on day 0. Mice were treated with 6 mg/kg aza-EpoB, 6 h-i.v. infusion on days 20, 22, 24, 26, 28 and 30 (Δ, n=3). The same group of mice were then treated with 30 mg/kg dEpoF, 6 h-i.v. infusion on days 42, 44, 46, 48, 52, and 54 (Δ, n=3). […] The control mice (∘, n=3) received vehicle only.
K562 tumor cells (1×10^7, in 0.2 ml/mouse) were implanted s.c. on day 0. […] The control mice (∘, n=4) received vehicle, Cremophor-ethanol (1:1), only. The vertical bars indicate mean tumor size in mm^3±S.E.
as §3
Athymic nude mice bearing the nu/nu gene were used for all human tumor xenografts. Outbred, Swiss-background mice were obtained from Charles River Laboratories. Male mice 8 weeks or older weighing 22 g and up were used for most experiments. The drug was administered via the tail vein for 6 hr.-i.v. infusion. Each individual mouse was confined in a perforated Falcon polypropylene tube restrainer for drug administration. Tumor volume was assessed by measuring length×width×height (or width) using a caliper. The programmable Harvard PHD2000 syringe pump (Harvard Apparatus) with multi-track was used for i.v. infusion. […] All animal studies were conducted in accordance with the guidelines of the National Institutes of Health “Guide for the Care and Use of Animals” and the protocol approved by the Memorial Sloan-Kettering Cancer Center's Institutional Animal Care and Use Committee. In keeping with the policy of this committee for the humane treatment of tumor-bearing animals, mice were euthanized when tumors reached ≧10% of their total body weight.
as §4

The test system of data set [4] is MX-1 mammary carcinoma xenograft.
The subject of data set [5] is UL-3-B/Taxol.
Data set [6] relates to DC-3F/ADII. In words: Tumor cell growth inhibition in vitro. The format is cell-based, hamster. Conditions: for cross-resistance (fold of resistance vs parent cell line): DC-3F/ADII vs DC-3F; for IC50: DC-3F/ADII. Here is the method: as §1, §2
Data set [7] has as its system CCRF-CEM/Taxol (paclitaxel-resistant subline). The data set is described as follows: Tumor cell growth inhibition in vitro (XTT, 72 h). The format is cell-based, human. Conditions: for cross-resistance (fold of resistance vs parent cell line): CCRF-CEM/Taxol vs CCRF-CEM; for IC50: Homo sapiens, CCRF-CEM, 72 h. How it is done: as §1, §2
Data set [8] has as its system CCRF-CEM/VM1 (teniposide-resistant subline). The data set is described as follows: Tumor cell growth inhibition in vitro (XTT, 72 h). Conditions: for cross-resistance (fold of resistance vs parent cell line): CCRF-CEM/VM1 vs CCRF-CEM; for IC50: Homo sapiens. The format is cell-based, human. Here is the method:
as §1, §2

Data set [9] deals with CCRF-CEM/VBL100 (vinblastine-resistant subline). The data set is described as follows: Tumor cell growth inhibition in vitro (XTT, 72 h). Format: cell-based, human. As to conditions: for cross-resistance (fold of resistance vs parent cell line): CCRF-CEM/VBL100 vs CCRF-CEM; for IC50: Homo sapiens. How it is done:
as §1, §2

Data set [10] deals with UL-3-B/Taxol. The data set is described as follows: cells. Conditions: Homo sapiens.
The test system of data set [11] is DC-3F hamster lung fibroblasts. The data set is described as follows: Tumor cell growth inhibition in vitro. Format: cell-based. As to conditions: Mesocricetus auratus, DC3F, read-out: IC50. Here is the method: as §1, §2
The nature of data set [12]: physchem.

Molecules are shown by their SMILES. Values after ≈ are worked out from the molar mass of the structure shown. “Also recorded” adds a separate entry of the source. Where two headings read alike, the source gives them in different places.

As a reminder, the IC50 is the concentration that inhibits the measured activity by half. For orientation: solubility means how much of the substance goes into solution per volume. Low values mean a poorly soluble substance, high ones a readily soluble substance.

`C/C(=C\c1csc(C)n1)C1C[C@@H]2O[C@]2(C)CCC[C@H](C)[C@H](O)[C@@H](C)C(=O)C(C)(C)C(O)CC(=O)N1` (some centres unmarked) [aza-EpoB, aza-epothilone B]: the IC50 in [1] was determined as 1.2 nM; in [6] (listed as 15-aza-EpoB, read-out: IC50), 288 nM; in [6] (read-out: IC50), 2380 nM; in data set [7] (read-out: IC50), 171 nM; in [8] (CCRF-CEM/VM1, 72 h, read-out: IC50), 39 nM; in data set [9] (CCRF-CEM/VBL100, 72 h, read-out: IC50) it was 2990 nM. In addition, the IC50 in [10] came to 15 nM; in data set [11], 8.7 nM. The “drop in body-weight that led to lethality” value in data set [2] was 14-20%. The “therapeutic effect on tumor growth” value is “inhibited tumor growth but did not lead to a reduction in the size of the tumor” in data set [3] (K562, aza-EpoB 6 mg/kg Q2D×6, 6 h-i.v. infusion (FIG. 34)) and “strongly suppressed tumor growth but did not shrink the tumor” in [3] (K562, aza-EpoB 6 mg/kg Q2D×6, 6 h-i.v. infusion (FIG. 34), listed as azaEpoB). In addition, the “Therapeutic Effect Rank Order” value in [3] is reported as “dEpoF>>>15-azaEpoB”; in [4] (mouse, in vivo, iv), “dEpoB>>>15-azaEpoB”. For the same compound, in data set [4] (MX-1-bearing mice, azaEpoB 6 mg/kg), the “mice died of toxicity on day 22” value is reported as “one out of five”. For the same compound, the “cross-resistance (fold of resistance vs parent cell line)” value is 0.015[12.5] x in data set [5]; 274 x in [6]; 33.1 x in [6] (listed as 15-aza-EpoB); 81.4 x in data set [7]; 18.6 x in [8]; 118.6 x in [8] (listed as 15-aza-EpoB). Moreover, in data set [9], the “cross-resistance (fold of resistance vs parent cell line)” value is recorded as 1423 x.

Turning to `C/C1=C/C[C@@H](/C(C)=C/c2csc(CO)n2)OC(=O)C[C@H](O)C(C)(C)C(=O)[C@H](C)[C@@H](O)[C@@H](C)CCC1` [dEpoF, 12,13-Desoxyepothilone F], the solubility in data set [12] is approximately 25 mg/mL (≈ 49.2 mM). Moreover, the concentration for half-maximal inhibition (IC50) was 4.8 nM in data set [1]; 18.1 nM in data set [6]; 22.3 nM in data set [6] (Mesocricetus auratus, DC3F); 5.3 nM in [7]; 4.9 nM in data set [8] (CCRF-CEM, 72 h); 47 nM in [9] (CCRF-CEM, 72 h). The compound also came in with an IC50 in data set [10] of 6.7 nM. In addition, the “drop in body-weight during treatment without causing lethality” value in [2] is on record as 23-29%. Also, the “tumor free mice on day 76” value in [3] (K562, aza-EpoB 6 mg/kg then dEpoF 30 mg/kg, n=3) is “all three mice were tumor free”. In addition, the “therapeutic effect on tumor growth” value in data set [3] (K562, dEpoF 30 mg/kg Q2D×6 in the same mice after aza-EpoB, tumor near 500 mm^3 (FIG. 34)) was “readily induced reduction in the size of the tumor to the point of remission; also recorded: The tumor mass eventually disappeared three weeks later”; in [4] (MX-1, dEpoF 15 mg/kg Q2D×5, 6 hr-i.v. infusion), “tumor growth was partially suppressed”. In data set [3], the “Therapeutic Effect Rank Order” value is listed as “dEpoF>>>15-azaEpoB”. For the same compound, the “tumor disappearance (tumor free mice)” value in data set [4] (MX-1, dEpoF 30 mg/kg Q2D×5, 6 hr-i.v. infusion) is given as “three out of five”. Also, the “cross-resistance (fold of resistance vs parent cell line)” value in [7] was determined as 2.0 x; in [8] it was 1.8 x; in data set [9], 17.4 x.

(Values after US6867305B2, “Synthesis of epothilones, intermediates thereto and analogues thereof” (Sloan-Kettering Institute for Cancer Research, priority 1996, dated 2005).)
